Like-named read-outs stand apart in the source and are kept apart here.
What was measured:
[1] = molecular target: intracellular phosphorylation of EGFR (Tyr1068) in PC-9 cells (Ex19Del) (Homo sapiens, UniProt P00533, DEL746-750); assay: PC-9 pEGFR AlphaLISA assay; assay type: cell-based; conditions: 4 hours compound incubation, read-out: Ext pEGFR_PC-9 Ex19Del IC50
EGFR (d746-750) = molecular target: T1, EGFR (d746-750) (Homo sapiens, UniProt P00533, DEL746-750); assay: Biochemical EGFR inhibition assay (Caliper mobility shift), EGFR (d746-750); conditions: read-out: Enz EGFR_Exon19-del746-750 IC50
T1 construct: purchased SignalChem E10-122JG

EGFR L858R = molecular target: T2, EGFR L858R (Homo sapiens, UniProt P00533, L858R); assay: Biochemical EGFR inhibition assay (Caliper mobility shift), EGFR L858R; conditions: read-out: Enz EGFR_L858R IC50
T2 construct: purchased SignalChem E10-122BG

[2] = 1.0 mM ATP or ATP Km, room temperature (25° C.)

T1 sequence (P00533 with tags, fused parts or gaps DEL746-750 limits assumed): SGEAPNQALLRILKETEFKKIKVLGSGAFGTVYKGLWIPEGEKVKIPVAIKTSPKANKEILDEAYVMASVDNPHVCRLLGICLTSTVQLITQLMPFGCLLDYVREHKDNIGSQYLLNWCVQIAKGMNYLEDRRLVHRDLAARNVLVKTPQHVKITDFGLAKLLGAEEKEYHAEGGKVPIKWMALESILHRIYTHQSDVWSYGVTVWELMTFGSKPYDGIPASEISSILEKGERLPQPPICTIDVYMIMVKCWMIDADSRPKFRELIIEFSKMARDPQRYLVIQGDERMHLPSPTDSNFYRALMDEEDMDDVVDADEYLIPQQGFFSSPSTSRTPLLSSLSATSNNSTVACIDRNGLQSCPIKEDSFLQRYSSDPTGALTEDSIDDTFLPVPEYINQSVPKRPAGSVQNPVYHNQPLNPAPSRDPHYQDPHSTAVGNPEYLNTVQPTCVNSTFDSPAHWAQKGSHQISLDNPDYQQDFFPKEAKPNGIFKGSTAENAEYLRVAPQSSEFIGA
T2 sequence (P00533 25-1210 L858R): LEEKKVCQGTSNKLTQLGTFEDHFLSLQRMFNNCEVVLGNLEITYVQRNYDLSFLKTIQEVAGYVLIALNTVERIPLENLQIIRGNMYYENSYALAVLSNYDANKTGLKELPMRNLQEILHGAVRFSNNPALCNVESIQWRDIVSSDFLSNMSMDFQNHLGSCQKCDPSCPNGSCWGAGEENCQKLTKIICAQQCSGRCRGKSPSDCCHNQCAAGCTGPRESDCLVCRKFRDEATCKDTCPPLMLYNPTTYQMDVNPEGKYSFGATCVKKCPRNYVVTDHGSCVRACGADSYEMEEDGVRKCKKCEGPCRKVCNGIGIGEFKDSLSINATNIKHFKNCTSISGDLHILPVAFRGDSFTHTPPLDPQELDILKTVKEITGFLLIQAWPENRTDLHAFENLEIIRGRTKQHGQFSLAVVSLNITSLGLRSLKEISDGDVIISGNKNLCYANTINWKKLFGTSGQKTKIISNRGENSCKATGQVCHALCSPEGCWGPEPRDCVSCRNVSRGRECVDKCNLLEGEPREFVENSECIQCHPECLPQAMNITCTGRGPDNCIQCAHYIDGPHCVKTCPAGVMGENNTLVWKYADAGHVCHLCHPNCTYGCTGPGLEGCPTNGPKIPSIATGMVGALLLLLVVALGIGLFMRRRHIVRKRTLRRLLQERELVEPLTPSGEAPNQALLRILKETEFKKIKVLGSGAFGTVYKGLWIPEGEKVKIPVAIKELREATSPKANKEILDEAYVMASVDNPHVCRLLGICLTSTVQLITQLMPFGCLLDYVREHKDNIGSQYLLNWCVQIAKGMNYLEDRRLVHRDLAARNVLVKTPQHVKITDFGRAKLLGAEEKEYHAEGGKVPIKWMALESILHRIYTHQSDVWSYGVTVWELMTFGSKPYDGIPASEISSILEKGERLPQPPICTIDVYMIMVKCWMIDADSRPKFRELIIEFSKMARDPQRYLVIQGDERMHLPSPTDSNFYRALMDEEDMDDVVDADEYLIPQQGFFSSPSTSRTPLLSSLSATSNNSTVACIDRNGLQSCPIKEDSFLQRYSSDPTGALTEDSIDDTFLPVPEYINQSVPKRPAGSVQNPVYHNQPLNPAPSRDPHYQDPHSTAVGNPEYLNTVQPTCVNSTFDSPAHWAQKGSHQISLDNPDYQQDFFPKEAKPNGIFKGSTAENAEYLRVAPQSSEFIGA
intracellular phosphorylation of EGFR (Tyr1068) in PC-9 cells (Ex19Del), sequence (P00533 with tags, fused parts or gaps DEL746-750): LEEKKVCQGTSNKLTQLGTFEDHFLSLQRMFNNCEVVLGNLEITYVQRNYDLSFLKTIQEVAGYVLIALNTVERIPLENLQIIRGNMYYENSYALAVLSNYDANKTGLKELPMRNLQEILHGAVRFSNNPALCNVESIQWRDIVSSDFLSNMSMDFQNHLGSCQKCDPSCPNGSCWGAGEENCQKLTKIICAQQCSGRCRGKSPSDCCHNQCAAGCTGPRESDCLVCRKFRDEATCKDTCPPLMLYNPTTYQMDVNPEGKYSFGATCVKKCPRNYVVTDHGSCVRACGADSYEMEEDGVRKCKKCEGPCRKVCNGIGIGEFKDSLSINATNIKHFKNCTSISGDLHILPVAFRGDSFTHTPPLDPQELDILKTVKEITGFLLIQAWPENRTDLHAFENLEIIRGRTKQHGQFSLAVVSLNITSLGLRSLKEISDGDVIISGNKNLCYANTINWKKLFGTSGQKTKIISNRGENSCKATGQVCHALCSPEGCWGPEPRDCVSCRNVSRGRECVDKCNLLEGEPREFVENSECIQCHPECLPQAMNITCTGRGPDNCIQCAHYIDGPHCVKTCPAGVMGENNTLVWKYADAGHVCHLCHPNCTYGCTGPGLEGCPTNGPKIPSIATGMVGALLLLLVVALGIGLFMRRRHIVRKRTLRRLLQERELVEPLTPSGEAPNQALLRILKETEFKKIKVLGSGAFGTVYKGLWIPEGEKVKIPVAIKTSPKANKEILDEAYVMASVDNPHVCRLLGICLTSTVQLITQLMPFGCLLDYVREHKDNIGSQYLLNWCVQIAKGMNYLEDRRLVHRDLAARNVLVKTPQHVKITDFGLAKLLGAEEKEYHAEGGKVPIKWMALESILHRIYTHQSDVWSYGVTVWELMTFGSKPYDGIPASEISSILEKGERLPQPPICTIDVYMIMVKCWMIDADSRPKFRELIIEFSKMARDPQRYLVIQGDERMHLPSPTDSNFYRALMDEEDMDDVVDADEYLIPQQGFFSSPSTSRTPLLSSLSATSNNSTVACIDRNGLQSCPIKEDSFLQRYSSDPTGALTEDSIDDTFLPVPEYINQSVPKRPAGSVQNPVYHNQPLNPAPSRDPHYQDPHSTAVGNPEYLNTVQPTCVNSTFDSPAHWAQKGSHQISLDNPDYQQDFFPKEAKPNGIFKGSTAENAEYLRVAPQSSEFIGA

SMILES	IC50 [1] [nM]	IC50 (EGFR (d746-750); [2]) [nM]	IC50 (EGFR L858R; [2]) [nM]	IC50 (EGFR (d746-750)) [nM]	IC50 (EGFR L858R) [nM]
C[C@H](Oc1cc(-c2cnn(C)c2)cc2ncnc(Nc3ccc4ncccc4c3F)c12)C1COC1 (single isomer, unassigned) [Example 2, (S)—N-(5-fluoroquinolin-6-yl)-7-(1-methyl-1H-pyrazol-4-yl)-5-(1-(oxetan-3-yl)ethoxy)quinazolin-4-amine or (R)—N-(5-fluoroquinolin-6-yl)-7-(1-methyl-1H-pyrazol-4-yl)-5-(1-(oxetan-3-yl)ethoxy)quinazolin-4-amine]	≤ 10	< 10	< 10	–	–
C[C@@H](CN(C)C)Oc1cc(-c2cnn(C)c2)cc2ncnc(Nc3ccc4ncccc4c3F)c12 (single isomer, unassigned) [Example 4, (S)-5-((1-(dimethylamino)propan-2-yl)oxy)-N-(5-fluoroquinolin-6-yl)-7-(1-methyl-1H-pyrazol-4-yl)quinazolin-4-amine or (R)-5-((1-(dimethylamino)propan-2-yl)oxy)-N-(5-fluoroquinolin-6-yl)-7-(1-methyl-1H-pyrazol-4-yl)quinazolin-4-amine]	> 50.1	10.1 to 50	10.1 to 50	–	–
C[C@H](CN(C)C)Oc1cc(-c2cnn(C)c2)cc2ncnc(Nc3ccc4ncccc4c3F)c12 (single isomer, unassigned) [Example 5, (R)-5-((1-(dimethylamino)propan-2-yl)oxy)-N-(5-fluoroquinolin-6-yl)-7-(1-methyl-1H-pyrazol-4-yl)quinazolin-4-amine or (S)-5-((1-(dimethylamino)propan-2-yl)oxy)-N-(5-fluoroquinolin-6-yl)-7-(1-methyl-1H-pyrazol-4-yl)quinazolin-4-amine]	≤ 10	< 10	< 10	–	–
Cn1cc(-c2cc(O[C@@H]3CC[C@@H]3O)c3c(Nc4ccc5ncccc5c4F)ncnc3c2)cn1 (single isomer, unassigned) [Example 16, (1S,2R)-2-((4-((5-fluoroquinolin-6-yl)amino)-7-(1-methyl-1H-pyrazol-4-yl)quinazolin-5-yl)oxy)cyclobutan-1-ol or (1R,2S)-2-((4-((5-fluoroquinolin-6-yl)amino)-7-(1-methyl-1H-pyrazol-4-yl)quinazolin-5-yl)oxy)cyclobutan-1-ol]	≤ 10	< 10	< 10	–	–
CC[C@H](Oc1cc(-c2cnn(C)c2)cc2ncnc(Nc3ccc4ncccc4c3F)c12)C1COC1 (single isomer, unassigned) [Example 23, (S)—N-(5-fluoroquinolin-6-yl)-7-(1-methyl-1H-pyrazol-4-yl)-5-(1-(oxetan-3-yl)propoxy)quinazolin-4-amine or ((R)—N-(5-fluoroquinolin-6-yl)-7-(1-methyl-1H-pyrazol-4-yl)-5-(1-(oxetan-3-yl)propoxy)quinazolin-4-amine]	≤ 10	< 10	< 10	–	–
C[C@H](O)[C@H](C)Oc1cc(-c2cnn(C)c2)cc2ncnc(Nc3ccc4ncccc4c3F)c12 (single isomer, unassigned) [Example 30, (2S,3S)-3-((4-((5-fluoroquinolin-6-yl)amino)-7-(1-methyl-1H-pyrazol-4-yl)quinazolin-5-yl)oxy)butan-2-ol or (2R,3R)-3-((4-((5-fluoroquinolin-6-yl)amino)-7-(1-methyl-1H-pyrazol-4-yl)quinazolin-5-yl)oxy)butan-2-ol]	≤ 10	< 10	< 10	–	–
CN(C)C[C@H](Oc1cc(-c2cnn(C)c2)cc2ncnc(Nc3ccc4ncccc4c3F)c12)C(F)F (single isomer, unassigned) [Example 37, (S)-5-((3-(dimethylamino)-1,1-difluoropropan-2-yl)oxy)-N-(5-fluoroquinolin-6-yl)-7-(1-methyl-1H-pyrazol-4-yl)quinazolin-4-amine or (R)-5-((3-(dimethylamino)-1,1-difluoropropan-2-yl)oxy)-N-(5-fluoroquinolin-6-yl)-7-(1-methyl-1H-pyrazol-4-yl)quinazolin-4-amine]	≤ 10	< 10	< 10	–	–
CN(C)C[C@@H](Oc1cc(-c2cnn(C)c2)cc2ncnc(Nc3ccc4ncccc4c3F)c12)C(F)F (single isomer, unassigned) [Example 38, (R)-5-((3-(dimethylamino)-1,1-difluoropropan-2-yl)oxy)-N-(5-fluoroquinolin-6-yl)-7-(1-methyl-1H-pyrazol-4-yl)quinazolin-4-amine or (S)-5-((3-(dimethylamino)-1,1-difluoropropan-2-yl)oxy)-N-(5-fluoroquinolin-6-yl)-7-(1-methyl-1H-pyrazol-4-yl)quinazolin-4-amine]	10.1 to 50	< 10	10.1 to 50	–	–
C[C@H](CN(C)C)Oc1cc(-c2cnn(C)c2)cc2ncnc(Nc3ccc4ncccc4c3)c12 (single isomer, unassigned) [Example 43, (R)-5-((1-(dimethylamino)propan-2-yl)oxy)-7-(1-methyl-1H-pyrazol-4-yl)-N-(quinolin-6-yl)quinazolin-4-amine or (S)-5-((1-(dimethylamino)propan-2-yl)oxy)-7-(1-methyl-1H-pyrazol-4-yl)-N-(quinolin-6-yl)quinazolin-4-amine]	> 50.1	10.1 to 50	> 50.1	–	–
C[C@@H](CN(C)C)Oc1cc(-c2cnn(C)c2)cc2ncnc(Nc3ccc4ncccc4c3)c12 (single isomer, unassigned) [Example 44, (S)-5-((1-(dimethylamino)propan-2-yl)oxy)-7-(1-methyl-1H-pyrazol-4-yl)-N-(quinolin-6-yl)quinazolin-4-amine or (R)-5-((1-(dimethylamino)propan-2-yl)oxy)-7-(1-methyl-1H-pyrazol-4-yl)-N-(quinolin-6-yl)quinazolin-4-amine]	≤ 10	< 10	< 10	–	–
CC(CN(C)C)Oc1cc(N2CC3CC(C2)O3)cc2ncnc(Nc3ccc4ncccc4c3)c12 (single isomer, unassigned) [Example 67, 7-(6-oxa-3-azabicyclo[3.1.1]heptan-3-yl)-5-(((R)-1-(dimethylamino)propan-2-yl)oxy)-N-(quinolin-6-yl)quinazolin-4-amine or 7-(6-oxa-3-azabicyclo[3.1.1]heptan-3-yl)-5-(((S)-1-(dimethylamino)propan-2-yl)oxy)-N-(quinolin-6-yl)quinazolin-4-amine]	10.1 to 50	–	–	10.1 to 50	10.1 to 50
C[C@@H](CN(C)C)Oc1cc(N2CC3CC(C2)O3)cc2ncnc(Nc3ccc4ncccc4c3)c12 (single isomer, unassigned) [Example 68, 7-(6-oxa-3-azabicyclo[3.1.1]heptan-3-yl)-5-(((S)-1-(dimethylamino)propan-2-yl)oxy)-N-(quinolin-6-yl)quinazolin-4-amine or 7-(6-oxa-3-azabicyclo[3.1.1]heptan-3-yl)-5-(((R)-1-(dimethylamino)propan-2-yl)oxy)-N-(quinolin-6-yl)quinazolin-4-amine]	≤ 10	< 10	10.1 to 50	–	–
CO[C@@H]1CCN(c2cc(O[C@H](C)C3COC3)c3c(Nc4ccc5ncccc5c4F)ncnc3c2)C1 (single isomer, unassigned) [Example 85a, N-(5-fluoroquinolin-6-yl)-7-((R)-3-methoxypyrrolidin-1-yl)-5-((R)-1-(oxetan-3-yl)ethoxy)quinazolin-4-amine or N-(5-fluoroquinolin-6-yl)-7-((S)-3-methoxypyrrolidin-1-yl)-5-((R)-1-(oxetan-3-yl)ethoxy)quinazolin-4-amine]	≤ 10	< 10	< 10	–	–
CO[C@H]1CCN(c2cc(O[C@H](C)C3COC3)c3c(Nc4ccc5ncccc5c4F)ncnc3c2)C1 (single isomer, unassigned) [Example 85b, N-(5-fluoroquinolin-6-yl)-7-((S)-3-methoxypyrrolidin-1-yl)-5-((R)-1-(oxetan-3-yl)ethoxy)quinazolin-4-amine or N-(5-fluoroquinolin-6-yl)-7-((R)-3-methoxypyrrolidin-1-yl)-5-((R)-1-(oxetan-3-yl)ethoxy)quinazolin-4-amine]	≤ 10	< 10	< 10	–	–
CO[C@@H]1CCN(c2cc(O[C@H](C)CN(C)C)c3c(Nc4ccc5ncccc5c4F)ncnc3c2)C1 (single isomer, unassigned) [Example 87a, 5-(((R)-1-(dimethylamino)propan-2-yl)oxy)-N-(5-fluoroquinolin-6-yl)-7-((R)-3-methoxypyrrolidin-1-yl)quinazolin-4-amine or 5-(((R)-1-(dimethylamino)propan-2-yl)oxy)-N-(5-fluoroquinolin-6-yl)-7-((S)-3-methoxypyrrolidin-1-yl)quinazolin-4-amine]	≤ 10	< 10	< 10	–	–
CO[C@H]1CCN(c2cc(O[C@H](C)CN(C)C)c3c(Nc4ccc5ncccc5c4F)ncnc3c2)C1 (single isomer, unassigned) [Example 87b, 5-(((R)-1-(dimethylamino)propan-2-yl)oxy)-N-(5-fluoroquinolin-6-yl)-7-((S)-3-methoxypyrrolidin-1-yl)quinazolin-4-amine or 5-(((R)-1-(dimethylamino)propan-2-yl)oxy)-N-(5-fluoroquinolin-6-yl)-7-((R)-3-methoxypyrrolidin-1-yl)quinazolin-4-amine]	≤ 10	< 10	< 10	–	–

From patent publication US12662465B2, “EGFR inhibitors” (Blueprint Medicines Corporation, priority 2021, dated 2026)
